Data reported in patent US6472348B1, “Pyridone derivatives and herbicides” (Kumiai Chemical Industry Co., Ltd., priority 1996, dated 2002).

Experiments:
green foxtail (Se) [1] = experiment: Test Example 4: crop plant selectivity by upland field soil treatment (cotton), herbicidal effects; type: in vivo; design: scale not given here; settings: evaluated 21st day after application
Method in brief: (§1)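 Seeds of cotton and several weed species were sown in sand-filled pots and covered with soil before soil treatment with the test compound. Plants were grown in a greenhouse, and herbicidal effect and crop phytotoxicity were scored against set standards 21 days after application.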

soybean (Gl) = experiment: Test Example 6: crop plant selectivity by upland field soil treatment (soybean), phytotoxicity; type: in vivo; design: scale not given here; settings: 21st day after application
Method in brief: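 Seeds are sown in sand and covered with soil. The soil is treated with test compound. Pots are kept in a greenhouse. Weed control and soybean damage are rated visually 21 days after application.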

China jute (Ab) = experiment: Test Example 5: crop plant selectivity by upland field soil treatment (wheat), herbicidal effects; type: in vivo; design: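 grade of growth control; 5 = at least 90%; 4 = 70 to 90%; 3 = 50 to 70%; 2 = 30 to 50%; 1 = 10 to 30%; 0 = under 10%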; settings: 21st day after application
Method in brief: (§2)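 Scores are visual ratings of herbicidal effect or wheat phytotoxicity, recorded on the 21st day after soil treatment of pots sown with wheat and weeds and kept in a greenhouse.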

slender amaranth (Am) = experiment: as above; type: in vivo; design: scale not given here; settings: 21st day after application
Method in brief: as §2

[2] = system: common lambsquarters (Ch); experiment: as above; type: in vivo; design: scale not given here; settings: 21st day after application
Method in brief: as §2

green foxtail (Se) [3] = experiment: as above; type: in vivo; design: scale not given here; settings: 21st day after application
Method in brief: as §2

pale smartweed (Po) = experiment: as above; type: in vivo; design: scale not given here; settings: 21st day after application
Method in brief: as §2

cotton (Go) = experiment: Test Example 4: crop plant selectivity by upland field soil treatment (cotton), phytotoxicity; type: in vivo; design: scale not given here; settings: evaluated 21st day after application
Method in brief: as §1

corn (Ze) = experiment: Test Example 7: crop plant selectivity by upland field soil treatment (corn), phytotoxicity; type: in vivo; design: scale not given here; settings: 21st day after application
Method in brief: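 Values are ratings of herbicidal effect and phytotoxicity on a standard scale, taken 21 days after application. Test species were sown together with corn in sand-filled pots, covered with soil, and grown in a greenhouse.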

wheat (Tr) = experiment: Test Example 9: crop plant selectivity by upland field foliage treatment (wheat), phytotoxicity; settings: dose 1.6 g ai/10a, 14th day after treatment;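 note: grade of crop injury; 5 = at least 90%; 4 = 70 to 90%; 3 = 50 to 70%; 2 = 30 to 50%; 1 = 10 to 30%; 0 = under 10%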
Method in brief: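 Seeds of wheat, pale smartweed, slender amaranth, common lambsquarters and China jute are sown in sand and grown 2 weeks under glass. Foliage is then treated, culture resumes in the greenhouse, and damage is graded on the 14th day.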

Structure (SMILES)	Herbicidal effects Se (green foxtail (Se) [1]; dose 1.6 g ai/10 a)	Herbicidal effects Se (green foxtail (Se) [1]; dose 6.3 g ai/10 a)	Phytotoxicity Gl (soybean (Gl); dose 1.6 g ai/10a)	Herbicidal effects Ab (China jute (Ab); dose 1.6 g ai/10a)	Herbicidal effects Am (slender amaranth (Am); dose 1.6 g ai/10a)	Herbicidal effects Ch ([2]; dose 1.6 g ai/10a)	Herbicidal effects Se (green foxtail (Se) [3]; dose 1.6 g ai/10a)	Herbicidal effects Po (pale smartweed (Po); dose 1.6 g ai/10a)	Phytotoxicity Go (cotton (Go); dose 1.6 g ai/10 a)	Phytotoxicity Go (cotton (Go); dose 6.3 g ai/10 a)	Phytotoxicity Ze (corn (Ze); dose 1.6 g ai/10a)	Phytotoxicity Ze (corn (Ze); dose 6.3 g ai/10a)	Phytotoxicity Gl (soybean (Gl); dose 6.3 g ai/10a)	Phytotoxicity Tr (wheat (Tr))	Herbicidal effects Ab (China jute (Ab); dose 6.3 g ai/10a)	Herbicidal effects Am (slender amaranth (Am); dose 6.3 g ai/10a)	Herbicidal effects Ch ([2]; dose 6.3 g ai/10a)	Herbicidal effects Se (green foxtail (Se) [3]; dose 6.3 g ai/10a)	Herbicidal effects Po (pale smartweed (Po); dose 6.3 g ai/10a)
C#CC(C)Oc1cc(-c2cn(C)c(C(F)(F)F)cc2=O)c(F)cc1Cl (racemic) [Compound 6-10]	4	5	0	4	5	5	4	5	0	1									
COc1cc(-c2ccc(C(F)(F)F)n(C)c2=O)c(F)cc1Cl [1-15]	5	5	2	5	5	5	5	5	0	1	1								
C#CC(C)Oc1cc(-c2ccc(C(F)(F)F)n(C)c2=O)c(F)cc1Cl (centres unmarked) [1-17]	5	5	0	5	5	5	5	5	0	0	1	1							
C#CCOc1cc(-c2ccc(C(F)(F)F)n(C)c2=O)c(F)cc1Cl [1-18]	5	5	1	5	5	5	5	5	1	1	1	2							
Cn1c(C(F)(F)F)ccc(-c2cc(OCC#N)c(Cl)cc2F)c1=O [1-25]		5								1		1	2	2					
Cc1cc(-c2ccc(C(F)(F)F)n(C)c2=O)c(F)cc1Cl [1-90]		5	2							1	1	2	2		5	5	5	5	5
Cn1c(C(F)(F)F)ccc(-c2cc(OCC(F)(F)F)c(Cl)cc2F)c1=O [1-155]	5	5	0	5	5	5	5	5	0	0	0	0	0		5	5	5	5	5
CCOCOc1cc(-c2ccc(C(F)(F)F)n(C)c2=O)c(F)cc1Cl [1-181]		5								0			1	2	5	5	5	5	5
C=CCN1C(=O)COc2cc(F)c(-c3ccc(C(F)(F)F)n(C)c3=O)cc21 [Compound 2-7]	4	5	0	5	5	4	5	5	0	1			0						
C#CCN1C(=O)COc2cc(F)c(-c3cn(C)c(C(F)(F)F)cc3=O)cc21 [Compound 7-1]		5								1			1	2	5	5		5	5
CON=Cc1cc(-c2ccc(C(F)(F)F)n(C)c2=O)c(F)cc1Cl [Compound No. 1-72, 5-(1-methyl-6-trifluoromethyl-2(1H)-pyridon-3-yl)-2-chloro-4-fluorobenzaldehydeoxime-O-methyl ether]	5	5	1	5	5	5	5	5	0	0	0		2						
Cn1c(C(F)(F)F)ccc(-c2cc(C#N)c(Cl)cc2F)c1=O [Compound No. 1-119, 3-(4-chloro-5-cyano-2-fluorophenyl)-1-methyl-6-trifluoromethyl-2(1H)-pyridone]		5								0		1	2	2					
C#CCN1C(=O)COc2cc(F)c(-c3ccc(C(F)(F)F)n(C)c3=O)cc21 [Compound No. 2-1, 3-[7-fluoro-2,3-dihydro-4-(2-propynyl)-1,4-benzoxazin-3-on-6-yl]-1-methyl-6-trifluoromethyl-2(1H)-pyridone]	5		0	5	5	5	5	5	2				1						
C#CCn1c(=O)sc2cc(F)c(-c3ccc(C(F)(F)F)n(C)c3=O)cc21 [Compound No. 3-1, 3-[6-fluoro-3-(2-propynyl)-benzothiazolin-2-on-5-yl]-1-methyl-6-trifluoromethyl-2(1H)-pyridone]	5	5							0	1	2	2	1		5	5	5	5	5
COCc1cc2c(-c3ccc(C(F)(F)F)n(C)c3=O)c(F)cc(Cl)c2o1 [Compound No. 4-4, 3-(7-chloro-5-fluoro-2-methoxymethylbenzofuran-4-yl)-1-methyl-6-trifluoromethyl-2-(1H)-pyridone]	5	5		5	5	5	5	5	0	1	1	2	2						
Cn1cc(-c2cc(Oc3ccccc3)c(Cl)cc2F)c(=O)cc1C(F)(F)F [Compound No. 6-19, 5-(4-chloro-2-fluoro-5-phenoxyphenyl)-1-methyl-2-trifluoromethyl-4(1H)-pyridone]	5	5	0	3	5	5	5	5	0	0			0		5	5	5	5	5
